# Measurements: ChEMBL document CHEMBL1147519, “N-[18F]fluoroethylpiperidin-4-ylmethyl butyrate: a novel radiotracer for quantifying brain butyrylcholinesterase activity by positron emission tomography” (Bioorg Med Chem Lett, 2004)
# Key:
# [1] = Partition coefficient (logD); format: physicochemical; details: octanol/water
# [2] = Partition coefficient (logD) (octanol/phosphate buffer); format: physicochemical
# Homo sapiens = species: Homo sapiens; experiment: The estimated hydrolysis rate in the human cerebral cortex; format: functional
# [3] = biological target: Cholinesterase (Homo sapiens) (UniProt P06276); experiment: Specificity to butyrylcholinesterase
# Cholinesterase (Homo sapiens), sequence (P06276 whole entry): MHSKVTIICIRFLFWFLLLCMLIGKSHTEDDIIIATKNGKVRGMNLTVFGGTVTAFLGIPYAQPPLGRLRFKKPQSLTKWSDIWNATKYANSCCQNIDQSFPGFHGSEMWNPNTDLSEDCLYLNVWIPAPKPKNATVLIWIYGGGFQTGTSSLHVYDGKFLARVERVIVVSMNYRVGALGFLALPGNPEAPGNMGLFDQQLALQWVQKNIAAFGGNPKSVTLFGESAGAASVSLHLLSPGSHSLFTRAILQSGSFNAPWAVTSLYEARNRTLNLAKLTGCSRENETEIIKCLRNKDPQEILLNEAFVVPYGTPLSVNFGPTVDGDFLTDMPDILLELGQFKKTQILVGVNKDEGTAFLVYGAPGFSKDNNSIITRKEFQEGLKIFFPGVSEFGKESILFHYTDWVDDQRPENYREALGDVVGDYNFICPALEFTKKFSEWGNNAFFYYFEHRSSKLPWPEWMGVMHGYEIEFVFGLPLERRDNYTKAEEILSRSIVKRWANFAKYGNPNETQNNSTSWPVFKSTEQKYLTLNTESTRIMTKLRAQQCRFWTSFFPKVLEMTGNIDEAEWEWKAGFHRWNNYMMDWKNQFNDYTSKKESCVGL
Compound,logD [1],logD [2],Total rate (Homo sapiens) [g⁻¹ min⁻¹ mL⁻¹],Specificity [3] [%]
CCC(=O)OC1CCN(C)CC1,-0.22,-2.2,0.035,–
CCCC(=O)OCC1CCN(CCF)CC1,0.62,-1.3,0.2,98
CCCC(=O)OC1CCN(C)CC1,0.21,-2.2,0.033,98
CC(=O)OC1CCN(C)CC1,-0.3,-2.2,0.16,–
